Assay results as given in patent US10647699B2, “Substituted 2-oxyimidazolylcarboxamides as pesticides” (Bayer CropScience Aktiengesellschaft, priority 2016, dated 2020).
Read-outs that look alike come from different tables or passages of the source.

Experiments:
Myzus persicae [1] = assay: Myzus persicae spray test (MYZUPE), Chinese cabbage leaf discs; type: in vivo; conditions: for Emax at 100 g/ha / pest or weed control at 500 g/ha: Myzus persicae, foliar; for Emax at 100 g/ha: read-out: % efficacy; for pest or weed control at 500 g/ha: read-out: efficacy
Experimental: Myzus persicae—Spray Test
To produce a suitable preparation of active compound, 1 part by weight of active compound is dissolved using the specified parts by weight of solvent and made up with water containing an emulsifier concentration of 1000 ppm until the desired concentration is attained. To produce further test concentrations, the formulation is diluted with emulsifier-containing water.
Discs of Chinese cabbage leaves (Brassica pekinensis) infested by all stages of the green peach aphid (Myzus persicae) are sprayed with an active compound formulation of the desired concentration.
After 5 or 6 days, the efficacy in % is determined. 100% means that all the aphids have been killed; 0% means that no aphids have been killed.
Myzus persicae—Spray Test (MYZUPE)
Discs of Chinese cabbage leaves (Brassica pekinensis) infested by all stages of the green peach aphid (Myzus persicae) are sprayed with an active compound preparation of the desired concentration.
After the desired period of time, the efficacy in % is determined. 100% means that all the aphids have been killed; 0% means that no aphids have been killed.

Myzus persicae [2] = assay: Myzus persicae oral test (MYZUPE O); type: in vivo; conditions: for Emax at 4 ppm / pest or weed control at 20 ppm / Emax at 0.8 ppm: Myzus persicae, po, 120 h; for Emax at 4 ppm / Emax at 0.8 ppm: read-out: % efficacy; for pest or weed control at 20 ppm: read-out: efficacy
Experimental: Solvent: 100 parts by weight of acetone
To produce a suitable preparation of active compound, 1 part by weight of active compound is dissolved using the specified parts by weight of solvent and made up with water until the desired concentration is attained.
50 μl of the active compound preparation are transferred into microtitre plates and made up to a final volume of 200 μl with 150 μl of IPL41 insect medium (33%+15% sugar). Subsequently, the plates are sealed with parafilm, which a mixed population of green peach aphids (Myzus persicae) within a second microtitre plate is able to puncture and imbibe the solution through it.
After 5 days, the efficacy in % is determined. 100% means that all the aphids have been killed; 0% means that no aphids have been killed.
Myzus persicae—Oral Test (MYZUPE O)
After 5 or 6 days (dat), the efficacy in % is determined. 100% means that all the aphids have been killed; 0% means that no aphids have been killed.

[3] = log P by HPLC on reversed-phase columns (OECD Guideline 117), neutral range; type: physicochemical; conditions: for chromatographic logP: reversed-phase (C18) HPLC column
Aphis gossypii = Aphis gossypii spray test on cotton plants; type: in vivo; conditions: for pest or weed control at 20 ppm: Aphis gossypii, 144 h, read-out: efficacy (kill)
Experimental: Aphis gossypii—Spray Test
Solvent: 14 parts by weight of dimethylformamide
Emulsifier: alkylaryl polyglycol ether
To produce a suitable preparation of active compound, 1 part by weight of active compound is dissolved using the specified parts by weight of solvent and made up with water containing an emulsifier concentration of 1000 ppm until the desired concentration is attained. To produce further test concentrations, the formulation is diluted with emulsifier-containing water. If the addition of ammonium salts or/and penetrants is required, these are each added in a concentration of 1000 ppm to the formulation solution.
Cotton plants (Gossypium hirsutum) which are heavily infested by the cotton aphid (Aphis gossypii) are sprayed with an active compound formulation of the desired concentration.
After 6 days, the kill in % is determined. 100% means that all the aphids have been killed; 0% means that no aphids have been killed.

[4] = after 5 days, application rate 500 g/ha
[5] = after 5 days, application rate 20 ppm
[6] = after 6 days, application rate 20 ppm, cotton plants
[7] = after 6 days, application rate 500 g/ha
[8] = 120 h, after 5 days, application rate 500 g/ha
[9] = 144 h, MYZUPE, 100 g of ai/ha, 6 dat
[10] = HPLC, neutral range pH 7.8, read-out: LogP-neutral

Row | Compound | efficacy (Myzus persicae [1]; [4]) | efficacy (Myzus persicae [2]; [5]) | LogP-neutral ([3]; pH 7.8) | efficacy (kill) (Aphis gossypii; [6]) | other results
1 | CN(C(=O)c1cnc(Oc2cccc(Cl)c2)n1C)c1cccnc1 [Example II-2] |  |  |  |  | Emax at 100 g/ha (Myzus persicae [1]; 144 h): 100%; pest or weed control at 500 g/ha (Myzus persicae [1]; 144 h): 100%; Emax at 4 ppm (Myzus persicae [2]): 100%; pest or weed control at 20 ppm (Myzus persicae [2]): 100%; chromatographic logP ([3]; pH 7.8, HPLC-MS, neutral, read-out: log P[n]): 2.1; pest or weed control at 20 ppm (Aphis gossypii): 100%
2 | CC(C)Oc1ncc(C(=S)N(C)c2cccnc2)n1C [Example II-3] | 90% | 100% | 1.99 | 100% | 
3 | CC(C)Oc1ncc(C(=O)N(C)c2ccc[n+]([O-])c2)n1C [Example II-4] | 90% | 100% | 1.03 | 100% | 
4 | CCCOc1ncc(C(=O)N(C)c2cccnc2)n1C [Example II-5] |  | 90% | 1.52 | 100% | efficacy (Myzus persicae [1]; [7]): 90%
5 | CSCCOc1ncc(C(=O)N(C)c2cccnc2)n1C [Example II-6] |  | 100% | 1.45 | 99% | efficacy (Myzus persicae [1]; [7]): 90%
6 | COCCCOc1ncc(C(=O)N(C)c2cccnc2)n1C [Example II-7] |  | 100% | 1.27 | 100% | efficacy (Myzus persicae [1]; [7]): 100%
7 | CN(C(=O)c1cnc(OCc2cccnc2)n1C)c1cccnc1 [Example II-8] |  | 100% | 1.16 | 99% | efficacy (Myzus persicae [1]; [7]): 90%
8 | CN(C(=O)c1cnc(Oc2ccc(Cl)cc2)n1C)c1cccnc1 [Example II-9] |  | 100% |  | 100% | efficacy (Myzus persicae [1]; [7]): 90%; LogP-neutral ([3]; HPLC, neutral range pH 7.8): 2.09
9 | CCOc1ncc(C(=O)N(C)c2cccnc2)n1C [Example II-10] |  | 100% | 1.19 | 100% | efficacy (Myzus persicae [1]; [7]): 100%
10 | COc1ncc(C(=O)N(C)c2cccnc2)n1C [Example II-12] |  |  |  |  | pest or weed control at 500 g/ha (Myzus persicae [1]; [8]): 100%; Emax at 100 g/ha (Myzus persicae [1]; [9]): 90%; Emax at 0.8 ppm (Myzus persicae [2]; MYZUPE O, 0.8 ppm, 5 dat): 100%; Emax at 4 ppm (Myzus persicae [2]; MYZUPE O, 4 ppm, 5 dat): 100%; pest or weed control at 20 ppm (Myzus persicae [2]; [5]): 100%; chromatographic logP [3, 10]: 0.9; pest or weed control at 20 ppm (Aphis gossypii; [6]): 100%
11 | CN(C(=O)c1cnc(Oc2ccc(Cl)nc2)n1C)c1cccnc1 [Example II-15] |  |  |  |  | Emax at 100 g/ha (Myzus persicae [1]; [9]): 100%; pest or weed control at 500 g/ha (Myzus persicae [1]; 144 h, after 6 days, application rate 500 g/ha): 100%; Emax at 0.8 ppm (Myzus persicae [2]; MYZUPE O, 0.8 ppm, 5 dat): 100%; pest or weed control at 20 ppm (Myzus persicae [2]; [5]): 100%; chromatographic logP [3, 10]: 1.53; pest or weed control at 20 ppm (Aphis gossypii; [6]): 100%
12 | CN(C(=O)c1cnc(Oc2ccc(F)cc2F)n1C)c1cccnc1 [Example II-17] |  | 100% | 1.86 | 100% | efficacy (Myzus persicae [1]; [7]): 100%
13 | CC(=O)Nc1cccc(Oc2ncc(C(=O)N(C)c3cccnc3)n2C)c1 [Example II-74] | 90% | 100% | 1.25 |  | 
14 | CCc1cccc(Oc2ncc(C(=O)N(C)c3cccnc3)n2C)c1 [Example II-75] | 90% | 100% |  |  | LogP-neutral ([3]; HPLC, neutral range pH 7.8): 2.35
15 | CCCc1cccc(Oc2ncc(C(=O)N(C)c3cccnc3)n2C)c1 [Example II-77] | 100% | 90% | 2.66 |  | 
16 | CN(C(=O)c1cnc(Oc2cccc(C(F)(F)F)c2F)n1C)c1cccnc1 [Example II-78] | 100% | 100% | 2.39 |  | 
17 | Cc1cccc(Oc2ncc(C(=O)N(C)c3cccnc3)n2C)c1 [Example II-79] | 90% | 90% |  |  | LogP-neutral ([3]; HPLC, neutral range pH 7.8): 1.97
18 | CN(C(=O)c1cnc(Oc2cccc(S(C)(=O)=O)c2)n1C)c1cccnc1 [Example II-80] | 100% | 100% | 1.31 |  | 
19 | CN(C(=O)c1cnc(Oc2ccc(F)c(C(F)(F)F)c2)n1C)c1cccnc1 [Example II-83] | 90% |  | 2.42 |  | efficacy (Myzus persicae [2]; after 5 days, application rate 4 ppm): 100%
20 | CON=Cc1cccc(Oc2ncc(C(=O)N(C)c3cccnc3)n2C)c1 [Example II-84] | 90% | 100% | 2.04 |  | 
21 | Cc1ccc(Oc2ncc(C(=O)N(C)c3cccnc3)n2C)cc1Cl [Example II-85] | 100% | 90% | 2.45 |  | 
22 | CN(C(=O)c1cnc(Oc2cc(F)cc(C(F)(F)F)c2)n1C)c1cccnc1 [Example II-86] | 100% | 100% | 2.55 |  | 
23 | COc1cc(Cl)cc(Oc2ncc(C(=O)N(C)c3cccnc3)n2C)c1 [Example II-88] | 90% | 100% | 2.26 |  | 
24 | Cn1c(C(=O)N(c2cccnc2)C2CC2)cnc1Oc1ccc(Cl)nc1 [Example II-90] |  | 100% |  |  | efficacy (Myzus persicae [1]; after 5 days, application rate 100 g/ha): 90%; LogP-neutral ([3]; HPLC, neutral range pH 7.8): 1.8
25 | Cn1c(C(=O)N(c2cccnc2)C2CC2)cnc1Oc1cncc(C(F)(F)F)c1 [Example II-91] |  |  |  |  | Emax at 100 g/ha (Myzus persicae [1]; 120 h, MYZUPE, 100 g of ai/ha, 5 dat): 90%; pest or weed control at 500 g/ha (Myzus persicae [1]; [8]): 90%; Emax at 0.8 ppm (Myzus persicae [2]; MYZUPE O, 0.8 ppm, 5 dat): 70%; Emax at 4 ppm (Myzus persicae [2]; MYZUPE O, 4 ppm, 5 dat): 90%; pest or weed control at 20 ppm (Myzus persicae [2]; [5]): 100%; chromatographic logP [3, 10]: 2.1
26 | CCN(C(=O)c1cnc(Oc2cncc(C(F)(F)F)c2)n1C)c1cccnc1 [Example II-92] | 100% | 100% | 2.04 |  | 
27 | Cn1c(C(=O)N(c2cccnc2)C2CC2)cnc1Oc1cccc(Cl)c1 [Example II-93] | 90% | 100% |  |  | LogP-neutral ([3]; HPLC, neutral range pH 7.8): 2.41
28 | CCN(C(=O)c1cnc(Oc2ccc(F)nc2)n1C)c1cccnc1 [Example II-95] |  |  |  |  | Emax at 100 g/ha (Myzus persicae [1]; 120 h): 100%; pest or weed control at 500 g/ha (Myzus persicae [1]; 120 h): 100%; Emax at 0.8 ppm (Myzus persicae [2]): 100%; Emax at 4 ppm (Myzus persicae [2]): 90%; pest or weed control at 20 ppm (Myzus persicae [2]): 100%; chromatographic logP [3, 10]: 1.55
